Assay results as given in US20230240991A1, “PROTEOPHOSPHOLIPOSOMES HAVING HDL-TYPE VESICLES” (priority 2019, published 2023).

System: intact washed human platelets
Assay: [3H]PAF radioligand binding to intact washed human platelets after preincubation with plasma fractions (FIG. 1)
Protocol: Washed intact human thrombocytes are protected with plasma fractions from healthy volunteers (n=3, means, ±1 S.D.).
The thrombocytes are further preincubated with dialyzed, delipidated plasma proteins (0.36 mg/ml), with purified VLDL-fractions (0.9 mg/ml), with IDL (0.02 mg/ml), with HDL (0.5 mg/ml) or with delipidated HSA (0.25%).
Washed thrombocytes are tested in the presence of thioether-2-acyl-glycero-phosphatidylcholines (500 nM) compared to controls.

alkyl-acetyl-sn-glycero-phosphocholines [PAF]
total [3H]PAF binding (500 nM unlabeled PAF, n=3, control 22±3 fmol): 6±2 fmol per 10^8 cells/ml

thioether-2-acyl-glycero-phosphatidylcholines [Thio-GPC]
total binding of [3H]PAF (500 nM Thio-GPC, washed thrombocytes, compared to controls): do not at all change
